Source: US20040038861A1, “Methods and compositions for normalizing lipid levels in mammalian tissues” (priority 2001, published 2004)

Experiments:
soleus muscle [1] = assay: Individual free fatty acids by gas chromatography in soleus muscle of rats fed high fat diets; design: species or system rat; conditions: 1 hour, GC
Description: (§1) High-fatted rats. Groups of male Wistar rats (n=21/diet) were ad libitum fed high-fat diets containing standard rat chow to which 40% (w/w) of lard, corn oil or olive oil had been added, from the time of weaning (age=21 d) until sacrifice at 50 d. Triacylglycerol from lard contains predominantly saturated fatty acids; that from corn oil […], see Table 4.
(§2) Soleus muscle tissue isolation and incuhation.Immersion and incubation media was Krebs-Henseleit buffer (KHB) containing 118.5 mM NaCl, 4.75 mM KCl, 1.18 mM MgSO4.7H2O and KH2PO4, 24.8 mM NaHCO3, 2.54 mM CaCl2 and 10 mM d-glucose. The medium was gassed continuously with 95% O2/5% CO2. […] Soleus muscles of both legs were excised keeping the tissue immersed in KHB; muscles were separated into two equal parts and transferred to the incubation flasks. At the completion of incubation the muscles were snap frozen in liquid nitrogen, and then trimmed of connective tissue and all visible fat. The muscle strips were stored at −80° C. until analysis.
(§3) Lipid extraction and chromatographic separation of fatty acids. Total lipids were extracted from muscle strips by a modified version of the method of Bligh and Dyer (Gorski et al., 1988, Mol & Cell Biochem 178:113-118; 1. Bligh et al., 1959, Can J Biochem Physiol 37: 911-917). Muscles were homogenised (Soniprep 150) in 0.4 ml of deionised water. Solvent volumes used herein were varied according to the water content of the muscle (ie muscle weight) as described (Bligh & Dyer, supra). 2 vols of methanol containing 0.005% butylated hydroxy toluene (BHT) and 1 vol chloroform were added to the muscle suspension. Homogenates were vortexed at maximum speed for 2 minutes and centrifuged at 2,500 g for 4 minutes. Supernatants were recovered and pellets re-extracted with 2 vol methanol, 1 vol chloroform and 0.8 vol 0.2 N HCl. Residues were vortexed for 2 min then centrifuged at 3,500 g for 3 min. After centrifugation the combined supernatants were diluted with 2v each of milli Q water and chloroform and the phases separated by centrifugation at 3,500 g for 4 minutes. The lower chloroform phase was recovered, neutralised by dropwise addition of 0.2 N methanolic NH4OH and evaporated down in a stream of N2. The samples were stored at −80° C. until required.
(§4) Aminopropyl phase (250 mg) was packed into 16 ml teflon columns with teflon frits placed at the top and bottom of the bonded phase. Columns were placed in a Vac Elut apparatus and washed twice with 2 ml portions of hexane (Prasad et al., 1988, J Chromato 428: 221-228; Kaluzny et al., 1985, J Lipid Res 26: 135-140). The dry lipid samples were taken up in two 0.150 ml portions of chloroform and applied to the column under atmospheric pressure. After adsorption the neutral lipids were eluted with 4 ml of chloroform-2-propanol (2:1, v/v) and the free fatty acids eluted with 4 ml of 2% acetic acid in diethyl ether. The solvent containing the free fatty acids was dried under a stream of N2.
Gas-liquid chromatographic analysis. Dry free fatty acid residues were processed for derivatisation of methyl esters by the boron trifluoride-methanol method (Prasad, supra). 1 ml of boron trifluoride in methanol (BF3) was added to each sample, the sample vials were heated at 70° C. for 5 minutes, shaken vigorously, and baked for a further 10 minutes. Once the samples reached room temperature 0.5 ml milli Q water was added, the sample vials shaken, 0.1 ml heptane was added and the sample shaken again. 0.05 ml of the top heptane layer was removed for GLC analysis. A Model HP5890 Plus Series 2 (Hewlett-Packard) gas chromatograph equipped with a DB-225 column was used to separate the methyl esters of the fatty acids and a Model HP 5890 GC with a Model HP 5973 MS (Hewlett-Packard) GC/MS used to confirm the identity of individual free fatty acids. […]

soleus muscle [2] = assay: Lipid metabolites (free fatty acid, glycerol, triglyceride; enzymatic analysis) in isolated soleus muscle from normally fed rats; assay type: cell-based, rat; conditions: for triacylglycerol (triglyceride) content / intramuscular free fatty acid content / intramuscular glycerol content: soleus, normally fed rats, 100 nM amylin or CGRP-1, 4.4 μM norepinephrine; for triacylglycerol (triglyceride) content: 60-min, control 1.17±0.15, not significant; for intramuscular free fatty acid content: 23.7 nM insulin, control 78±21; for intramuscular glycerol content: control 0.07±0.007
soleus muscle [3] = assay: Triglyceride and free fatty acid content (enzymatic) in isolated soleus muscle of rats fed high fat diets; assay type: cell-based, rat; conditions: 1 h
Description: as §1, §2, §3, §4
Determination of tissue free fatty acids and triacylglycerol concentration by enzymatic analyses. Free fatty acids were separated from total lipid, evaporated under a stream of N2 and stored at −80° C. until analysis. Samples were dissolved in 50 μl of warm ethanol (35-40° C.), and 0.625 ml of a Triton X-100 (6% w/v) solution was added once the ethanol reached room temperature. The solution was stirred for 30 min, then made up to 0.825 ml with the Triton solution. Free fatty acids were quantified using a commercial method (Boehringer Mannheim) adapted for micro analyses (Cobas Mira, Roche Diagnostics), with palmitic acid standards. Triacyl glycerol levels were quantified in the total lipid fraction (Pointe Scientific) with a glycerol standard.
Total lipid was extracted and quantitated. Results are shown in FIGS. 18A NEFA and 18B triglyceride.

[4] = rats fed diet high in olive oil
[5] = diet with 40% added lard, 100 nM amylin or CGRP-1, 4.4 μM norepinephrine, control 1.14±0.16
[6] = diet with 40% added lard, 100 nM amylin or CGRP-1, 4.4 μM norepinephrine, control 43±8

## NC[C@H](O)c1ccc(O)c(O)c1 [Norepinephrine, norepinephrine]
Soleus muscle [1]; rats fed diet high in corn oil
  free fatty acid adrenic C22:4: 0.05 ± 0.004 nmol/g wwt
  free fatty acid arachidic C20:0: 0.03 ± 0.002 nmol/g wwt
  free fatty acid arachidonic C20:4: 0.08 ± 0.009 nmol/g wwt
  free fatty acid cervonic C22:6: 0.04 ± 0.003 nmol/g wwt
  free fatty acid linoleic C18:2: 0.14 ± 0.02 nmol/g wwt
  free fatty acid linolenic C18:3: 0.13 ± 0.01 nmol/g wwt
  free fatty acid margaric C17:0: 0.04 ± 0.006 nmol/g wwt
  free fatty acid myristic C14:0: 0.02 ± 0.002 nmol/g wwt
  free fatty acid oleic C18:1: 0.12 ± 0.02 nmol/g wwt
  free fatty acid palmitic C16:0: 0.09 ± 0.01 nmol/g wwt
  free fatty acid palmitoleic (n-7) C16:1: 0.007 ± 0.0005 nmol/g wwt
  free fatty acid palmitoleic (n-9) C16:1: 0.15 ± 0.01 nmol/g wwt
  free fatty acid pentadecanoic C15:0: 0.04 ± 0.005 nmol/g wwt
  free fatty acid stearic C18:0: 0.11 ± 0.008 nmol/g wwt
  free fatty acid timnodonic C20:5: 0.05 ± 0.005 nmol/g wwt
  free fatty acid vaccenic C18:1: 0.02 ± 0.001 nmol/g wwt
Soleus muscle [1]; rats fed diet high in lard
  free fatty acid adrenic C22:4: 0.02 ± 0.003 nmol/g wwt
  free fatty acid arachidic C20:0: 0.03 ± 0.004 nmol/g wwt
  free fatty acid arachidonic C20:4: 0.012 ± 0.003 nmol/g wwt
  free fatty acid cervonic C22:6: 0.01 ± 0.001 nmol/g wwt
  free fatty acid linoleic C18:2: 0.09 ± 0.003 nmol/g wwt
  free fatty acid margaric C17:0: 0.08 ± 0.008 nmol/g wwt
  free fatty acid myristic C14:0: 0.04 ± 0.007 nmol/g wwt
  free fatty acid oleic C18:1: 0.21 ± 0.01 nmol/g wwt
  free fatty acid palmitic C16:0: 0.23 ± 0.02 nmol/g wwt
  free fatty acid palmitoleic (n-7) C16:1: 0.02 ± 0.0008 nmol/g wwt
  free fatty acid palmitoleic (n-9) C16:1: 0.01 ± 0.001 nmol/g wwt
  free fatty acid pentadecanoic C15:0: 0.13 ± 0.02 nmol/g wwt
  free fatty acid stearic C18:0: 0.22 ± 0.01 nmol/g wwt
  free fatty acid timnodonic C20:5: 0.02 ± 0.004 nmol/g wwt
  free fatty acid vaccenic C18:1: 0.07 ± 0.003 nmol/g wwt
Soleus muscle [1]; [4]
  free fatty acid adrenic C22:4: 0.02 ± 0.0007 nmol/g wwt
  free fatty acid arachidic C20:0: 0.009 ± 0.0004 nmol/g wwt
  free fatty acid arachidonic C20:4: 0.03 ± 0.0008 nmol/g wwt
  free fatty acid cervonic C22:6: 0.12 ± 0.03 nmol/g wwt
  free fatty acid linoleic C18:2: 0.04 ± 0.009 nmol/g wwt
  free fatty acid linolenic C18:3: 0.04 ± 0.01 nmol/g wwt
  free fatty acid margaric C17:0: 0.01 ± 0.001 nmol/g wwt
  free fatty acid myristic C14:0: 0.005 ± 0.0002 nmol/g wwt
  free fatty acid oleic C18:1: 0.28 ± 0.03 nmol/g wwt
  free fatty acid palmitic C16:0: 0.19 ± 0.002 nmol/g wwt
  free fatty acid palmitoleic (n-7) C16:1: 0.03 ± 0.009 nmol/g wwt
  free fatty acid palmitoleic (n-9) C16:1: 0.23 ± 0.01 nmol/g wwt
  free fatty acid pentadecanoic C15:0: 0.01 ± 0.0004 nmol/g wwt
  free fatty acid stearic C18:0: 0.16 ± 0.006 nmol/g wwt
  free fatty acid timnodonic C20:5: 0.04 ± 0.004 nmol/g wwt
  free fatty acid vaccenic C18:1: 0.2 ± 0.003 nmol/g wwt
Soleus muscle [2]
  triacylglycerol (triglyceride) content: 0.81 ± 0.09 µmol/g
Soleus muscle [2]; 1 h
  intramuscular free fatty acid content: 295 ± 27 nmol/g
  intramuscular glycerol content: 0.04 ± 0.005 nmol/g
Soleus muscle [3]; [5]
  soleus muscle triglyceride content: 0.69 ± 0.09 µmol/g
Soleus muscle [3]; [6]
  soleus muscle free fatty acid content: 75 ± 7 nmol/g

## Rat amylin
Soleus muscle [1]; rats fed diet high in corn oil
  free fatty acid adrenic C22:4: 0.03 ± 0.003 nmol/g wwt
  free fatty acid arachidic C20:0: 0.04 ± 0.002 nmol/g wwt
  free fatty acid arachidonic C20:4: 0.04 ± 0.002 nmol/g wwt
  free fatty acid cervonic C22:6: 0.03 ± 0.002 nmol/g wwt
  free fatty acid linoleic C18:2: 0.18 ± 0.02 nmol/g wwt
  free fatty acid linolenic C18:3: 0.16 ± 0.02 nmol/g wwt
  free fatty acid margaric C17:0: 0.02 ± 0.0009 nmol/g wwt
  free fatty acid myristic C14:0: 0.04 ± 0.006 nmol/g wwt
  free fatty acid oleic C18:1: 0.13 ± 0.01 nmol/g wwt
  free fatty acid palmitic C16:0: 0.12 ± 0.01 nmol/g wwt
  free fatty acid palmitoleic (n-7) C16:1: 0.01 ± 0.0008 nmol/g wwt
  free fatty acid palmitoleic (n-9) C16:1: 0.19 ± 0.008 nmol/g wwt
  free fatty acid pentadecanoic C15:0: 0.05 ± 0.007 nmol/g wwt
  free fatty acid stearic C18:0: 0.14 ± 0.008 nmol/g wwt
  free fatty acid timnodonic C20:5: 0.05 ± 0.007 nmol/g wwt
  free fatty acid vaccenic C18:1: 0.02 ± 0.002 nmol/g wwt
Soleus muscle [1]; rats fed diet high in lard
  free fatty acid adrenic C22:4: 0.03 ± 0.005 nmol/g wwt
  free fatty acid arachidic C20:0: 0.06 ± 0.007 nmol/g wwt
  free fatty acid arachidonic C20:4: 0.01 ± 0.0005 nmol/g wwt
  free fatty acid cervonic C22:6: 0.02 ± 0.002 nmol/g wwt
  free fatty acid linoleic C18:2: 0.29 ± 0.004 nmol/g wwt
  free fatty acid margaric C17:0: 0.08 ± 0.01 nmol/g wwt
  free fatty acid myristic C14:0: 0.05 ± 0.01 nmol/g wwt
  free fatty acid oleic C18:1: 0.2 ± 0.01 nmol/g wwt
  free fatty acid palmitic C16:0: 0.24 ± 0.01 nmol/g wwt
  free fatty acid palmitoleic (n-7) C16:1: 0.02 ± 0.0009 nmol/g wwt
  free fatty acid palmitoleic (n-9) C16:1: 0.02 ± 0.003 nmol/g wwt
  free fatty acid pentadecanoic C15:0: 0.12 ± 0.03 nmol/g wwt
  free fatty acid stearic C18:0: 0.35 ± 0.04 nmol/g wwt
  free fatty acid timnodonic C20:5: 0.02 ± 0.002 nmol/g wwt
  free fatty acid vaccenic C18:1: 0.02 ± 0.002 nmol/g wwt
Soleus muscle [1]; [4]
  free fatty acid adrenic C22:4: 0.05 ± 0.008 nmol/g wwt
  free fatty acid arachidic C20:0: 0.04 ± 0.005 nmol/g wwt
  free fatty acid arachidonic C20:4: 0.03 ± 0.007 nmol/g wwt
  free fatty acid cervonic C22:6: 0.08 ± 0.02 nmol/g wwt
  free fatty acid linoleic C18:2: 0.02 ± 0.004 nmol/g wwt
  free fatty acid linolenic C18:3: 0.01 ± 0.002 nmol/g wwt
  free fatty acid margaric C17:0: 0.02 ± 0.003 nmol/g wwt
  free fatty acid myristic C14:0: 0.01 ± 0.001 nmol/g wwt
  free fatty acid oleic C18:1: 0.34 ± 0.04 nmol/g wwt
  free fatty acid palmitic C16:0: 0.18 ± 0.01 nmol/g wwt
  free fatty acid palmitoleic (n-7) C16:1: 0.02 ± 0.001 nmol/g wwt
  free fatty acid palmitoleic (n-9) C16:1: 0.29 ± 0.03 nmol/g wwt
  free fatty acid pentadecanoic C15:0: 0.04 ± 0.005 nmol/g wwt
  free fatty acid stearic C18:0: 0.18 ± 0.02 nmol/g wwt
  free fatty acid timnodonic C20:5: 0.02 ± 0.003 nmol/g wwt
  free fatty acid vaccenic C18:1: 0.13 ± 0.02 nmol/g wwt
Soleus muscle [2]; 100 nM, 1 h, normal-fed rats (FIG. 3A, 3B)
  soleus muscle free fatty acid content, agonist alone: 216 ± 26 nmol/g
Soleus muscle [2]
  triacylglycerol (triglyceride) content: 1.7 ± 0.26 µmol/g
Soleus muscle [2]; 1 h
  intramuscular free fatty acid content: 216 ± 22 nmol/g
  intramuscular glycerol content: 0.03 ± 0.004 nmol/g
Soleus muscle [3]; [5]
  soleus muscle triglyceride content: 0.71 ± 0.07 µmol/g
Soleus muscle [3]; [6]
  soleus muscle free fatty acid content: 102 ± 12 nmol/g
Soleus muscle [3]; diet with 40% corn oil, 100 nM, control 0.89±0.06 μmol/g
  soleus muscle triglyceride content: 0.49±0.07 [mol/g
Soleus muscle [3]; diet with 40% corn oil, 100 nM, control 35±4
  soleus muscle free fatty acid content: 75 ± 9 nmol/g
Soleus muscle [3]; diet with 40% olive oil, 100 nM, control 0.83±0.1
  soleus muscle triglyceride content: 0.44 ± 0.4 µmol/g
Soleus muscle [3]; diet with 40% olive oil, 100 nM, control 15±3
  soleus muscle free fatty acid content: 85 ± 12 nmol/g
